Our source for the Km values is article PMC7292537, “BGAL1 depletion boosts the level of β‐galactosylation of N‐ and O‐glycans in N. benthamiana” (Plant Biotechnology Journal, 2020).

For the assay, the system named is T1, NbBGAL1 (SPα-BGAL1).
T1 construct: mature residues 25-846 (GH35 + Gal-lectin domain), own signal peptide replaced by barley alpha-amylase signal peptide, C-terminal StrepII tag (WSHPQFEK); transiently expressed in N. benthamiana, apoplastic fluid not purified; 95 kDa full length plus 48 kDa GH35 and 38 kDa truncated forms; precursor 846 aa
The assay can be described thus: fluorescein release, Hanes-Woolf and Lineweaver-Burk. The following applies: read-out: apparent KM; apoplastic fluid with overexpressed enzyme; 50 mM MES pH 5.0, 25 °C, 1 h; FDG 0-250 µM (printed unit mM doubtful, perhaps µM); unit of the source corrected; heading: apparent KM. Type of assay: biochemical, Nicotiana benthamiana.

A word on the Km: it is the substrate concentration at which the rate is half of its maximum. As to `O=C1OC2(c3ccc(O[C@@H]4O[C@H](CO)[C@H](O)[C@H](O)[C@H]4O)cc3Oc3cc(O[C@@H]4O[C@H](CO)[C@H](O)[C@H](O)[C@H]4O)ccc32)c2ccccc21` [FDG, fluorescein di-β-D-galactopyranoside], the Km turned out to be 0.0298 mM.
